Experimental findings from patent publication US11365204B2, “Substituted dihydrothienopyrimidines and their use as phosphodiesterase inhibitors” (UNION therapeutics A/S, priority 2017, dated 2022) are described below.

Experiment [1] concerns the target human PDE4D catalytic domain (UniProt no. Q08499 [S380-L740]) (Homo sapiens (Human), UniProt Q08499). Kind of experiment: PDE4 assay (TR-FRET, cAMP hydrolysis). As to conditions: read-out: PDE4 IC50 range. The experiment is classed as biochemical. The method, then: The human PDE4D catalytic domain (UniProt no. Q08499 [S380-L740]) was incubated with a mixture of non-labelled cAMP (cyclic adenosine monophosphate) and fluorescein amidite (FAM) conjugated cAMP and titrated test or reference compound.
Following brief incubation the enzymatic reaction was stopped by addition of binding buffer containing nanoparticles with immobilized trivalent metal ions capable of binding 1) AMP phospho groups and 2) terbium (Tb) donor fluorophores. Subsequent excitation of the Tb donor triggered time-resolved FRET to adjacent FAM acceptor molecules resulting in light emission. In the presence of a PDE4 inhibitor, AMP generation was reduced resulting in a lower fluorescence signal. The cAMP phosphodiester is not bound by the detection system.
Results were expressed as IC50 values (nM) calculated from inhibition curves where the TR-FRET signal was normalized to Tb fluorescence intensity and the negative (DMSO vehicle) and positive (10 microM a PDE4 inhibitor reference compound) controls.
On the technique in general: Time-resolved FRET reads energy transfer from a long-lived donor to a nearby acceptor.

The test system of experiment [2] is Human peripheral blood mononuclear cells (PBMC). Kind of experiment: TNF-α release from LPS-stimulated PBMC. Particulars: Lipopolysaccharide 1 microg/ml, 18 hours, AlphaLISA, read-out: TNF-α IC50 range. In kind it is cell-based. The method, then:
Human peripheral blood mononuclear cells (PBMC) were isolated from fresh buffy coats by density centrifugation using lymphoprep tubes (Medinor). Frozen PBMC's were washed in serum free assay buffer (RPMI1640 with 25 mM HEPES, 1% pen/strep, […] L glutamine, 0.5% human serum albumin) and living cells counted. Lipopolysaccharide (1 microg/ml; SIGMA) was added to the cells which were then transferred to 384 well tissue culture plates ([…]) containing titrated test compounds. The cells were incubated for 18 hours at 37° C. in serum free assay buffer and the level of TNFalpha in the supernatant was quantitated by AlphaLISA (PerkinElmer) by measuring fluorescence intensity at 615 nm.
Results were expressed as IC50 values calculated from inhibition curves using as controls the secretion in LPS stimulated wells and the secretion in cells incubated with 10 microM of a PDE4 inhibitor reference compound.
For orientation: Bead proximity is the source of the signal in Alpha formats.

The structures appear in SMILES notation.

Sequence of human PDE4D catalytic domain (Q08499 380-740): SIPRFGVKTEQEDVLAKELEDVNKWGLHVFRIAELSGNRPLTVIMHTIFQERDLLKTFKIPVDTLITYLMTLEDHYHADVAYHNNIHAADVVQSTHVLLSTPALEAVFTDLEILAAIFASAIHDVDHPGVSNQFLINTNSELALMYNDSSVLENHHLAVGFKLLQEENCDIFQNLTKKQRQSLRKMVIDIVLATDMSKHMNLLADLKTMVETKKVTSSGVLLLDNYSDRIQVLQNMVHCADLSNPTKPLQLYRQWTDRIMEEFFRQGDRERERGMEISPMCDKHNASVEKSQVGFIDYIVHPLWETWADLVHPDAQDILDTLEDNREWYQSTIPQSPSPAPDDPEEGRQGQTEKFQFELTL

As for `O=C(OC1CN(c2nc3c(c(NC4CC5(COC5)C4)n2)[S+]([O-])CC3)C1)c1cnsc1` (racemic) [Example 65, [1-[4-(6-oxaspiro[3.3]-heptan-2-ylamino)-5-oxido-6,7-dihydrothieno-[3,2-d]pyrimidin-5-ium-2-yl]azetidin-3-yl] isothia-zole-4-carboxylate], the IC50 in experiment [1] and in experiment [2] was < 100 nM throughout.
As to `O=C(OC1CN(c2nc3c(c(NC4CC5(COC5)C4)n2)[S@@+]([O-])CC3)C1)c1cscn1` (single isomer, unassigned) [Example 70], the IC50 in experiment [1] and in experiment [2] was < 100 nM each time.
For `O=C(OC1CN(c2nc3c(c(NC4CC5(COC5)C4)n2)[S@+]([O-])CC3)C1)c1cscn1` (single isomer, unassigned) [Example 71], the figures for the IC50 in experiment [1] and in experiment [2] were 100 to 500 nM and > 500 nM, respectively.
In the same order, the values of `CN(c1nc(N2CC(OC(=O)c3cnsc3)C2)nc2c1[S+]([O-])CC2)C1CCOCC1` (stereo in doubt) [Example 4, [1-[(5R)-4-[Methyl(tetrahydropyran-4-yl)amino]-5-oxido-6,7-dihydrothieno[3,2-d]pyrimidin-5-ium-2-yl]azetidin-3-yl] isothiazole-4-carboxylate] are < 100 nM and < 100 nM.
In the same order, the values of `CN(c1nc(N2CC(OC(=O)c3cscn3)C2)nc2c1[S+]([O-])CC2)C1CCOCC1` (stereo in doubt) [Example 6, [1-[(5R)-4-[Methyl(tetrahydropyran-4-yl)amino]-5-oxido-6,7-dihydrothieno[3,2-d]pyrimidin-5-ium-2-yl]azetidin-3-yl] thiazole-4-carboxylate] are < 100 nM and < 100 nM.
In the same order, the values of `O=C(OC1CN(c2nc3c(c(NC4CC5(COC5)C4)n2)[S+]([O-])CC3)C1)c1cnsc1` (stereo in doubt) [Example 68, [1-[(5R)-4-(6-oxaspiro-[3.3]heptan-2-ylamino)-5-oxido-6,7-dihydrothieno-[3,2-d]pyrimidin-5-ium-2-yl]azetidin-3-yl] isothia-zole-4-carboxylate] are < 100 nM and < 100 nM.
`O=C(OC1CN(c2nc3c(c(NC4CC5(COC5)C4)n2)[S+]([O-])CC3)C1)c1cnsc1` (stereo in doubt) [Example 69, [1-[(5S)-4-(6-oxaspiro-[3.3]heptan-2-ylamino)-5-oxido-6,7-dihydrothieno-[3,2-d]pyrimidin-5-ium-2-yl]azetidin-3-yl] isothia-zole-4-carboxylate]: the 50% inhibitory concentration (IC50) (as a rule, the concentration at which inhibition is half-maximal) is 100 to 500 nM in experiment [1] and > 500 nM in experiment [2].
The like results for `O=C(OC1CN(c2nc3c(c(NC4CCOCC4)n2)[S@@+]([O-])CC3)C1)c1cnsc1` [Example 1, [1-[(5R)-5-Oxido-4-(tetrahydropyran-4-ylamino)-6,7-dihydrothieno[3,2-d]pyrimidin-5-ium-2-yl]azetidin-3-yl] isothiazole-4-carboxylate] were, in that order, < 100 nM and < 100 nM.
In the case of `O=C(OC1CN(c2nc3c(c(NC4CCOCC4)n2)[S@@+]([O-])CC3)C1)c1cscn1` [Example 2, [1-[(5R)-5-Oxido-4-(tetrahydropyran-4-ylamino)-6,7-dihydrothieno[3,2-d]pyrimidin-5-ium-2-yl]azetidin-3-yl] thiazole-4-carboxylate], the IC50 in experiment [1] and in experiment [2] was < 100 nM each time.
As for `CN(c1nc(N2CC(OC(=O)c3cnsc3)C2)nc2c1[S+]([O-])CC2)C1CCOCC1` (stereo not shown) [Example 3, [1-[4-[Methyl(tetrahydropyran-4-yl)amino]-5-oxido-6,7-dihydrothieno[3,2-d]pyrimidin-5-ium-2-yl]azetidin-3-yl] isothiazole-4-carboxylate], the IC50 in experiment [1] and in experiment [2] was < 100 nM throughout.
For the compound `CN(c1nc(N2CC(OC(=O)c3cscn3)C2)nc2c1[S+]([O-])CC2)C1CCOCC1` (stereo not shown) [Example 5, [1-[4-[Methyl(tetrahydropyran-4-yl)amino]-5-oxido-6,7-dihydrothieno[3,2-d]pyrimidin-5-ium-2-yl]azetidin-3-yl] thiazole-4-carboxylate], the half-inhibitory concentration (IC50) in experiment [1] and in experiment [2] was < 100 nM throughout.
As for `CCN(c1nc(N2CC(OC(=O)c3cnsc3)C2)nc2c1[S+]([O-])CC2)C1CCOCC1` (stereo not shown) [Example 7, [1-[4-[Ethyl(tetrahydropyran-4-yl)amino]-5-oxido-6,7-dihydrothieno[3,2-d]pyrimidin-5-ium-2-yl]azetidin-3-yl] isothiazole-4-carboxylate], the IC50 in experiment [1] and in experiment [2] was 100 to 500 nM in each case.
Regarding `CCN(c1nc(N2CC(OC(=O)c3cscn3)C2)nc2c1[S+]([O-])CC2)C1CCOCC1` (stereo not shown) [Example 8, [1-[4-[Ethyl(tetrahydropyran-4-yl)amino]-5-oxido-6,7-dihydrothieno[3,2-d]pyrimidin-5-ium-2-yl]azetidin-3-yl] thiazole-4-carboxylate], the 50% inhibitory concentration (IC50) in experiment [1] and in experiment [2] was 100 to 500 nM throughout.
In the case of `CCCN(c1nc(N2CC(OC(=O)c3cnsc3)C2)nc2c1[S+]([O-])CC2)C1CCOCC1` (stereo not shown) [Example 9, [1-[4-[Propyl(tetrahydropyran-4-yl)amino]-5-oxido-6,7-dihydrothieno[3,2-d]pyrimidin-5-ium-2-yl]azetidin-3-yl] isothiazole-4-carboxylate], the IC50 in experiment [1] and in experiment [2] was > 500 nM throughout.
In the case of `CCCN(c1nc(N2CC(OC(=O)c3cscn3)C2)nc2c1[S+]([O-])CC2)C1CCOCC1` (stereo not shown) [Example 10, [1-[4-[Propyl(tetrahydropyran-4-yl)amino]-5-oxido-6,7-dihydrothieno[3,2-d]pyrimidin-5-ium-2-yl]azetidin-3-yl] thiazole-4-carboxylate], the 50% inhibitory concentration (IC50) in experiment [1] and in experiment [2] was > 500 nM in each case.
Take `O=C(OC1CN(c2nc3c(c(NC4CCOCC4)n2)[S@@+]([O-])CC3)C1)C1CCCC1` [Example 11, [1-[(5R)-5-oxido-4-(tetrahydropyran-4-ylamino)-6,7-dihydro-thieno[3,2-d]pyrimidin-5-ium-2-yl]azetidin-3-yl] cyclopentanecarboxylate]: the half-inhibitory concentration (IC50) in experiment [1] and in experiment [2] was < 100 nM each time.
In the case of `O=C(OC1CN(c2nc3c(c(NC4CCOCC4)n2)[S@@+]([O-])CC3)C1)C1CCOCC1` [Example 12, [1-[(5R)-5-oxido-4-(tetrahydropyran-4-ylamino)-6,7-dihydrothieno[3,2-d]pyrimidin-5-ium-2-yl]azetidin-3-yl] tetrahydropyran-4-carboxylate], the values for the 50% inhibitory concentration (IC50) in experiment [1] and in experiment [2] were 100 to 500 nM and < 100 nM, respectively.
In the same order, the values of `COCCC(=O)OC1CN(c2nc3c(c(N(C)C4CCOCC4)n2)[S+]([O-])CC3)C1` (stereo not shown) [Example 13, [1-[4-[methyl(tetra-hydropyran-4-yl)amino]-5-oxido-6,7-dihydro-thieno[3,2-d]pyrimidin-5-ium-2-yl]azetidin-3-yl] 3-methoxypropanoate] are 100 to 500 nM and 100 to 500 nM.
For the compound `CN(c1nc(N2CC(OC(=O)C3CC(O)C3)C2)nc2c1[S+]([O-])CC2)C1CCOCC1` (stereo not shown) [Example 14, [1-[4-[methyl(tetra-hydropyran-4-yl)amino]-5-oxido-6,7-dihydro-thieno[3,2-d]pyrimidin-5-ium-2-yl]azetidin-3-yl] 3-hydroxycyclobutane-carboxylate], the IC50 in experiment [1] and in experiment [2] was 100 to 500 nM in each case.
`CSCCC(=O)OC1CN(c2nc3c(c(N(C)C4CCOCC4)n2)[S+]([O-])CC3)C1` (stereo not shown) [Example 15, [1-[4-[methyl(tetra-hydropyran-4-yl)amino]-5-oxido-6,7-dihydro-thieno[3,2-d]pyrimidin-5-ium-2-yl]azetidin-3-yl] 3-methylsulfanyl-propanoate]: the IC50 in experiment [1] and in experiment [2] was < 100 nM each time.
`CN(c1nc(N2CC(OC(=O)c3ccccc3)C2)nc2c1[S+]([O-])CC2)C1CCOCC1` (stereo not shown) [Example 16, [1-[4-[methyl(tetra-hydropyran-4-yl)amino]-5-oxido-6,7-dihydro-thieno[3,2-d]pyrimidin-5-ium-2-yl]azetidin-3-yl] benzoate]: the half-maximal inhibitory concentration (IC50) in experiment [1] and in experiment [2] was < 100 nM in each case.
For `CN(c1nc(N2CC(OC(=O)c3ccn(C)n3)C2)nc2c1[S+]([O-])CC2)C1CCOCC1` (stereo not shown) [Example 17, [1-[4-[methyl(tetra-hydropyran-4-yl)amino]-5-oxido-6,7-dihydro-thieno[3,2-d]pyrimidin-5-ium-2-yl]azetidin-3-yl] 1-methylpyrazole-3-carboxylate], the IC50 in experiment [1] and in experiment [2] was < 100 nM in each case.
Take `CN(c1nc(N2CC(OC(=O)c3cnn(C)c3)C2)nc2c1[S+]([O-])CC2)C1CCOCC1` (stereo not shown) [Example 18, [1-[4-[methyl(tetra-hydropyran-4-yl)amino]-5-oxido-6,7-dihydro-thieno[3,2-d]pyrimidin-5-ium-2-yl]azetidin-3-yl] 1-methylpyrazole-4-carboxylate]: the concentration for half-maximal inhibition (IC50) in experiment [1] and in experiment [2] was < 100 nM each time.
